In general, IC50 refers to the concentration needed to halve the response being measured.

One assay concerns the target PI3K (Homo sapiens, UniProt P42336). As to the kind of experiment: Fluorescence polarization assay for PI3K.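 Also: PI3K kinase reaction on PIP2 with ATP, 30-60 min, product sensed by GST-GRP with red probe in fluorescence polarization (mP), controls without enzyme and at zero time.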 To be noted: PI3Kα; read-out: PI3Kα IC50. In kind it is biochemical.
For another assay, the system named is prostate line LNCap. As to the kind of experiment: In vitro cell culture growth assay (MTS), LNCap.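 Also: viable cell density read by absorbance at 490 nm, growth expressed as percent of vehicle-treated cells on the same plate.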 In kind it is cell-based, human. As to conditions: LNCap cells, three days after drug treatment.
Another assay concerns breast line MDA468. The assay is described as follows: In vitro cell culture growth assay (MTS), MDA468. It is filed as cell-based, human. To be noted: MDA468 cells, three days after drug treatment. In outline:
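Three-day drug treatment starting 1 day post-plating; viable cells quantified via MTS metabolism (A490); effect normalised to in-plate vehicle controls as % growth.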

Sequence of PI3K (P42336 whole entry): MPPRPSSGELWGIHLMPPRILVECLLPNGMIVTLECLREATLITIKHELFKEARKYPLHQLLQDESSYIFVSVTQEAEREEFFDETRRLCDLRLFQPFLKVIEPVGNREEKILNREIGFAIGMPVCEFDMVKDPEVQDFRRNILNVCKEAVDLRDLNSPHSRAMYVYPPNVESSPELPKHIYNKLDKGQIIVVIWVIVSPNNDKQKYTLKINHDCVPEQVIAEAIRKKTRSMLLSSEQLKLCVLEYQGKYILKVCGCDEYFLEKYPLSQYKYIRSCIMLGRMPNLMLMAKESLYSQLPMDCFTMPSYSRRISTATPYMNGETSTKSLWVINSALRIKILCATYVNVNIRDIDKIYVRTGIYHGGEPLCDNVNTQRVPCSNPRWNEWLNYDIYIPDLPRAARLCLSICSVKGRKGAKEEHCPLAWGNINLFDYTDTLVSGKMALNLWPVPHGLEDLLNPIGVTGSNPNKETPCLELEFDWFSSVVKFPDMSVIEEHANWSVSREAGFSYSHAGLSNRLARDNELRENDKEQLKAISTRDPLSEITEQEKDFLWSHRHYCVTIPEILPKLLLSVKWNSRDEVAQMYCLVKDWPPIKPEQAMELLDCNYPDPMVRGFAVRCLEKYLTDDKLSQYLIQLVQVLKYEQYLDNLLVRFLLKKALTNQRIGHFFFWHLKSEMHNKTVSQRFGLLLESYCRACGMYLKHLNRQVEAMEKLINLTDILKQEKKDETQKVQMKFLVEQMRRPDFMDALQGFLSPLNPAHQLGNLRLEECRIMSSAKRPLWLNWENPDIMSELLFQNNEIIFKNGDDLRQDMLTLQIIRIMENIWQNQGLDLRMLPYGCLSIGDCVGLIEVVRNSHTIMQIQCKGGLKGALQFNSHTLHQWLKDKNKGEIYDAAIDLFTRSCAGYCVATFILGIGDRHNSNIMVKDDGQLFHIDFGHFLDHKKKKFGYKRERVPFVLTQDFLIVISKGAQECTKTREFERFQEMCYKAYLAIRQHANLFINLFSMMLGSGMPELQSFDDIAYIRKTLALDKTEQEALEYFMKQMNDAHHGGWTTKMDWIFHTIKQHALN
Sequence of PI3K (P27986 whole entry partner): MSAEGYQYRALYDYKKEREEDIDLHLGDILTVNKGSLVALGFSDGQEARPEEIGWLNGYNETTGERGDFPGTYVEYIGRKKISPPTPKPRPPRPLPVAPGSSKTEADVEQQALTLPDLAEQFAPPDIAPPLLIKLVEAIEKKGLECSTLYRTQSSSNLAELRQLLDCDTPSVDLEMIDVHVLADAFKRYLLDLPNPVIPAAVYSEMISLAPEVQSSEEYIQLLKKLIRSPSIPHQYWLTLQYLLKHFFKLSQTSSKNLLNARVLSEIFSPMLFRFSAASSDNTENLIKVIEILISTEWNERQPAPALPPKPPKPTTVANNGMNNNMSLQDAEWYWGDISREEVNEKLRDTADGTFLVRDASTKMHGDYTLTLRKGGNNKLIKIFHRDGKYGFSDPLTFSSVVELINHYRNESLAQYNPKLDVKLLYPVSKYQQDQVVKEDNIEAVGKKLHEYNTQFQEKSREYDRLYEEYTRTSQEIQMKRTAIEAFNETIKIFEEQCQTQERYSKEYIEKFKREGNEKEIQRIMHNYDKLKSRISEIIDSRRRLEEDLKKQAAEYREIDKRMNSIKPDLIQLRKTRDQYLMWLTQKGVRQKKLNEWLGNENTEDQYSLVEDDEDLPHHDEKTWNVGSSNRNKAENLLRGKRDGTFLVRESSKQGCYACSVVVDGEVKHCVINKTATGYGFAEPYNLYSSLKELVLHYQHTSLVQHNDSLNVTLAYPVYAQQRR

As to `CNCCNC(=O)Nc1ccc(-c2nc(N3CCOCC3)c3cnn(C4CCN(Cc5ccccc5)CC4)c3n2)cc1` [Compound 545, 1-{4-[1-(1-benzylpiperidin-4-yl)-4-morpholin-4-yl-1H-pyrazolo[3,4-d]pyrimidin-6-yl]phenyl}-3-[2-(methylamino)ethyl]urea], the IC50 at PI3K was 13 nM; in the assay on prostate line LNCap (Homo sapiens, LNCaP, 72 h), 200 nM; with breast line MDA468 (Homo sapiens, 72 h) it was 150 nM.
On to `COC(=O)Nc1ccc(-c2nc(N3CCOCC3)c3cnn(C4CCN(C(=O)N5CCN(C)CC5)CC4)c3n2)cc1` [Compound 448, methyl [4-(1-{1-[(4-methylpiperazin-1-yl)carbonyl]piperidin-4-yl}-4-morpholin-4-yl-1H-pyrazolo[3,4-d]pyrimidin-6-yl)phenyl]carbamate], for which the IC50 is 725 nM on PI3K; 900 nM in the assay with prostate line LNCap (Homo sapiens, LNCaP, 72 h); 1700 nM in the assay with breast line MDA468 (Homo sapiens, 72 h).
For the compound `CNC(=O)Nc1ccc(-c2nc(N3CCOCC3)c3cnn(C4CCN(Cc5ccc(C)cc5)CC4)c3n2)cc1` [Example 431, 1-methyl-3-(4-{1-[1-(4-methylbenzyl)piperidin-4-yl]-4-morpholin-4-yl-1H-pyrazolo[3,4-d]pyrimidin-6-yl}phenyl)urea], the IC50 at PI3K amounted to 25 nM; with prostate line LNCap (Homo sapiens, LNCaP, 72 h) it was 27 nM; in the assay on breast line MDA468 (Homo sapiens, 72 h), 100 nM.
With `CNC(=O)Nc1ccc(-c2nc(N3CCOCC3)c3cnn(C4CCN(CC5OCCO5)CC4)c3n2)cc1` [Compound 797, 1-(4-{1-[1-(1,3-dioxolan-2-ylmethyl)piperidin-4-yl]-4-morpholin-4-yl-1H-pyrazolo[3,4-d]pyrimidin-6-yl}phenyl)-3-methylurea], the IC50 at PI3K stood at 155 nM; in the assay on prostate line LNCap (Homo sapiens, LNCaP, 72 h) it was 103 nM; with breast line MDA468 (Homo sapiens, 72 h) it was 300 nM.
With `CC(C)(C)OC(=O)N1CCC(n2ncc3c(N4CCOCC4)nc(-c4ccc(NC(=O)Nc5ncccn5)cc4)nc32)CC1` [Compound 886, tert-butyl 4-(4-morpholin-4-yl-6-{4-[(pyrimidin-2-ylcarbamoyl)amino]phenyl}-1H-pyrazolo[3,4-d]pyrimidin-1-yl)piperidine-1-carboxylate], the half-inhibitory concentration (IC50) at PI3K was 1230 nM; with prostate line LNCap (Homo sapiens, LNCaP, 72 h), 2600 nM; with breast line MDA468 (Homo sapiens, 72 h), 6700 nM.
On to `CNC(=O)Nc1ccc(-c2nc(N3CCOCC3)c3cnn(C4CCN(C(=O)c5ccc(C)nc5)CC4)c3n2)cc1` [Compound 664, 1-methyl-3-[4-(1-{1-[(6-methylpyridin-3-yl)carbonyl]piperidin-4-yl}-4-morpholin-4-yl-1H-pyrazolo[3,4-d]pyrimidin-6-yl)phenyl]urea], for which the half-inhibitory concentration (IC50) was determined as 118 nM on PI3K, 330 nM in the assay with prostate line LNCap and 270 nM in the assay with breast line MDA468.
With `COCCCNC(=O)Nc1ccc(-c2nc(N3CCOCC3)c3cnn(C4CCN(Cc5ccccc5)CC4)c3n2)cc1` [Compound 270, 1-{4-[1-(1-benzylpiperidin-4-yl)-4-morpholin-4-yl-1H-pyrazolo[3,4-d]pyrimidin-6-yl]phenyl}-3-(3-methoxypropyl)urea], the IC50 on PI3K was 753 nM; in the assay with prostate line LNCap (Homo sapiens, LNCaP, 72 h) it was 600 nM; in the assay with breast line MDA468 (Homo sapiens, 72 h), 3200 nM.
On to `NC(=O)CN1CCC(n2ncc3c(N4CCOCC4)nc(-c4ccc5[nH]ccc5c4)nc32)CC1` [Compound 245, 2-{4-[6-(1H-indol-5-yl)-4-morpholin-4-yl-1H-pyrazolo[3,4-d]pyrimidin-1-yl]piperidin-1-yl}acetamide], for which the IC50 was found to be 2660 nM at PI3K; 800 nM in the assay on prostate line LNCap (Homo sapiens, LNCaP, 72 h); 2800 nM in the assay with breast line MDA468 (Homo sapiens, 72 h).
`CNC(=O)Nc1ccc(-c2nc(N3CCOCC3)c3cnn(C4CCN(C(=O)c5ccc(Cl)cc5)CC4)c3n2)cc1` [Example 362, 1-(4-{1-[1-(4-chlorobenzoyl)piperidin-4-yl]-4-morpholin-4-yl-1H-pyrazolo[3,4-d]pyrimidin-6-yl}phenyl)-3-methylurea]: the IC50 was determined as 42 nM on PI3K; 52 nM with prostate line LNCap (Homo sapiens, LNCaP, 72 h); 400 nM in the assay on breast line MDA468 (Homo sapiens, 72 h).
In the case of `OC1CCC(n2ncc3c(N4CCOCC4)nc(-c4ccc5[nH]ccc5c4)nc32)CC1` (stereo not drawn) [Compound 152, 4-[6-(1H-indol-5-yl)-4-morpholin-4-yl-1H-pyrazolo[3,4-d]pyrimidin-1-yl]cyclohexanol], the IC50 on PI3K amounted to 1130 nM; in the assay with prostate line LNCap (Homo sapiens, LNCaP, 72 h), 600 nM; with breast line MDA468 (Homo sapiens, 72 h), 2300 nM.
For `C[C@@H]1COCCN1c1nc(-c2cccc(O)c2)nc2c1cnn2-c1ccccc1` [Compound 942, 3-{4-[(3R)-3-methylmorpholin-4-yl]-1-phenyl-1H-pyrazolo[3,4-d]pyrimidin-6-yl}phenol], the IC50 at PI3K worked out at 1390 nM; in the assay on prostate line LNCap (Homo sapiens, LNCaP, 72 h) it was 2800 nM; in the assay with breast line MDA468 (Homo sapiens, 72 h), 10200 nM.
Regarding `Nc1ccc(-c2nc(N3CCOCC3)c3cnn(C4CCN(Cc5ccccc5)CC4)c3n2)cc1F` [Compound 347, 4-[1-(1-benzylpiperidin-4-yl)-4-morpholin-4-yl-1H-pyrazolo[3,4-d]pyrimidin-6-yl]-2-fluoroaniline], the IC50 on PI3K amounted to 1650 nM; in the assay with prostate line LNCap (Homo sapiens, LNCaP, 72 h), 2000 nM; in the assay on breast line MDA468 (Homo sapiens, 72 h), 4000 nM.
Take `c1ccc(-n2ncc3c(N4CCOCC4)nc(-c4ccc5[nH]ncc5c4)nc32)cc1` [Compound 676, 6-(1H-indazol-5-yl)-4-morpholin-4-yl-1-phenyl-1H-pyrazolo[3,4-d]pyrimidine]: the IC50 on PI3K was 440 nM; with prostate line LNCap, 20000 nM; with breast line MDA468, greater than 60000 nM.
Take `CNC(=O)Nc1ccc(-c2nc(N3CCOCC3)c3cnn(C4CCN(C(=O)c5cccc(F)c5)CC4)c3n2)cc1` [Example 357, 1-(4-{1-[1-(3-fluorobenzoyl)piperidin-4-yl]-4-morpholin-4-yl-1H-pyrazolo[3,4-d]pyrimidin-6-yl}phenyl)-3-methylurea]: the IC50 on PI3K was 89 nM; with prostate line LNCap (Homo sapiens, LNCaP, 72 h), 27 nM; in the assay with breast line MDA468 (Homo sapiens, 72 h) it was 100 nM.
As to `NNC(=O)Nc1ccc(-c2nc(N3CCOCC3)c3cnn(C4CCN(Cc5ccccc5)CC4)c3n2)cc1` [Compound 554, N-{4-[1-(1-benzylpiperidin-4-yl)-4-morpholin-4-yl-1H-pyrazolo[3,4-d]pyrimidin-6-yl]phenyl}hydrazinecarboxamide], the half-maximal inhibitory concentration (IC50) on PI3K stood at 155 nM; in the assay on prostate line LNCap (Homo sapiens, LNCaP, 72 h) it was 900 nM; with breast line MDA468 (Homo sapiens, 72 h), 7500 nM.
For `CC(C)C(=O)N1CCC(n2ncc3c(N4CCOCC4)nc(-c4cccc(O)c4)nc32)CC1` [Example 29], in that order: 59 nM, 400 nM and 1200 nM.
The corresponding values for `CCNC(=O)Nc1cc(F)c(-c2nc(N3CCOCC3)c3cnn(C4CCN(C(=O)c5cccnc5)CC4)c3n2)cc1F` [Example 466, 1-(2,5-difluoro-4-{4-morpholin-4-yl-1-[1-(pyridin-3-ylcarbonyl)piperidin-4-yl]-1H-pyrazolo[3,4-d]pyrimidin-6-yl}phenyl)-3-ethylurea] are 3110 nM, 1050 nM and 3300 nM.
Consider `COC(=O)N1CCC(n2ncc3c(N4CCOCC4)nc(-c4ccc(NC(=O)NCCO)cc4)nc32)CC1` [Compound 733, methyl 4-[6-(4-{[(2-hydroxyethyl)carbamoyl]amino}phenyl)-4-morpholin-4-yl-1H-pyrazolo[3,4-d]pyrimidin-1-yl]piperidine-1-carboxylate], for which the 50% inhibitory concentration (IC50) on PI3K was determined as 402 nM; in the assay with prostate line LNCap (Homo sapiens, LNCaP, 72 h), 800 nM; in the assay with breast line MDA468 (Homo sapiens, 72 h) it was 580 nM.
Take `CCOC(=O)N1CCC(n2ncc3c(N4CCOC[C@H]4C)nc(-c4ccc(NC(=O)Nc5ccccc5)cc4)nc32)CC1` [Compound 891, ethyl 4-(4-[(3R)-3-methylmorpholin-4-yl]-6-{4-[(phenylcarbamoyl)amino]phenyl}-1H-pyrazolo[3,4-d]pyrimidin-1-yl)piperidine-1-carboxylate]: the IC50 on PI3K worked out at 590 nM; in the assay on prostate line LNCap (Homo sapiens, LNCaP, 72 h), 20 nM; with breast line MDA468 (Homo sapiens, 72 h), 210 nM.
The corresponding values for `CC(C)C(=O)N1CCC(n2ncc3c(N4CCOCC4)nc(-c4ccc(NC(=O)NCCF)cc4)nc32)CC1` [Compound 825, 1-(2-fluoroethyl)-3-{4-[1-(1-isobutyrylpiperidin-4-yl)-4-morpholin-4-yl-1H-pyrazolo[3,4-d]pyrimidin-6-yl]phenyl}urea] are 1670 nM, 150 nM and 620 nM.
As to `CNC(=O)Nc1ccc(-c2nc(N3CCOCC3)c3cnn(C4CCN(C)CC4)c3n2)cc1` [Compound 401, 1-methyl-3-{4-[1-(1-methylpiperidin-4-yl)-4-morpholin-4-yl-1H-pyrazolo[3,4-d]pyrimidin-6-yl]phenyl}urea], the IC50 on PI3K stood at 211 nM; in the assay with prostate line LNCap (Homo sapiens, LNCaP, 72 h), 1000 nM; in the assay with breast line MDA468 (Homo sapiens, 72 h) it was 3800 nM.
The corresponding values for `c1ccc(-n2ncc3c(N4CCOCC4)nc(-c4cc5ccccc5[nH]4)nc32)cc1` [Compound 111, 6-(1H-indol-2-yl)-4-morpholin-4-yl-1-phenyl-1H-pyrazolo[3,4-d]pyrimidine] are 1010 nM, 12000 nM and 23000 nM.
Consider `CCNC(=O)Nc1ccc(-c2nc(N3CCOCC3)c3cnn(C4CCN(C(=O)c5cccnc5)CC4)c3n2)cc1` [Example 307, 1-ethyl-3-(4-{4-morpholin-4-yl-1-[1-(pyridin-3-ylcarbonyl)piperidin-4-yl]-1H-pyrazolo[3,4-d]pyrimidin-6-yl}phenyl)urea], for which the IC50 at PI3K was found to be 434 nM; with prostate line LNCap (Homo sapiens, LNCaP, 72 h), 60 nM; with breast line MDA468 (Homo sapiens, 72 h), 200 nM.
For `CN(C)S(=O)(=O)c1ccc(-c2nc(N3CCOCC3)c3cnn(C4CCN(Cc5ccccc5)CC4)c3n2)cc1` [Compound 87], in that order: 780 nM, 23000 nM and 60000 nM.
For `CC(=O)Nc1cccc(-c2nc(N3CCOCC3)c3cnn(-c4ccccc4)c3n2)c1` [Compound 115], in that order: 357 nM, 5200 nM and 9000 nM.

The values above are taken from US20080234262A1 (Wyeth, priority 2007, published 2008).
